Laboratory results published in patent US11771712B2, “Carborane compounds and methods of use thereof” (OHIO STATE INNOVATION FOUNDATION, priority 2015, dated 2023).
Like-named read-outs stand apart in the source and are kept apart here.

How the values were obtained:
Human full-length ERβ = target: T1, Human full-length ERβ (Homo sapiens, UniProt Q92731); experiment: ERβ cell-based luciferase reporter assay, agonist mode, transiently transfected HEK293 cells
T1 construct: expression vector encoding human full-length ERα or ERβ; expressed in transfected cells; host or cells: HEK293, transiently transfected
Experimental: (§1) The selectivity and potency of the various compounds was carried out via in vitro testing in ERα and ERβ cell-based reporter assays. The activity of the selected compounds was determined in the cell-based reporter assays in HEK293 cells.
(§2) The HEK293 cells were propagated in a monolayer in phenol red-free DMEM supplemented with 10% fetal bovine serum, 2 mM Glutamax and penicillin/streptomycin (Thermo Fisher Scientific, MA, USA) and incubated in a 5% CO2 humidified atmosphere at 37° C. Right before transfection, the growth medium was changed to phenol red-free DMEM supplemented with 4% HyClone Fetal Bovine Serum, Charcoal/Dextran Treated (GE Healthcare Life Sciences, USA) and 2 mM Glutamax (starvation medium). The cells were transfected with the expression vector encoding human full-length ERα or ERβ and with the reporter vector containing 3 repeats of estrogen responsive elements (ERE) followed by the minimal thymidine kinase promoter from the herpes simplex virus in the pGL4 vector (Promega, USA). Luciferase served as a reporter gene. The transfection was carried out in 10 cm dishes (Nunc) in the starvation medium. After 24 hours, the cells were trypsinized, counted and seeded to cell culture treated, white, solid 1536-well plates (Corning Inc., NY, USA) at 1500 cells/well in 4 μl of total media volume. The compounds to be tested were diluted in DMSO and transferred to the cells using an acoustic dispenser Echo 520 (Labcyte). The compounds were tested at least at 12 different concentration points in the range from 10 μM to 100 pM, in triplicates. Luciferase activity was determined after 24 hours of incubation with compounds with Britelite plus luciferase reporter gene assay reagent (Perkin Elmer, USA), according to the manufacturer protocol. The luciferase signal was measured on an Envison multimode plate reader (Perkin Elmer, USA). Data were collected and processed using an in-house built LIMS system ScreenX and GraphPad Prism software. EC50 values were calculated using a regression function (dose response, variable slope).

HEK293 cells = experiment: HEK293 viability assay (ATPlite 1step); type: cell-based, human; settings: non-transfected HEK293, 24 h, ATP level; for HEK293 viability IC50 (μM): Low = activity detected but too low for exact value
Experimental: The non-transfected HEK293 cells were seeded to the 384-well plates at 5000 cell/well, compounds were added and the timing of all subsequent steps was exactly the same as in the reporter assays. […] After 24 h of compound incubation with cells, the viability of cells was measured by determining the ATP level in the samples using luciferase cell viability assay, ATPlite 1step (Perkin Elmer, USA).

Human full-length GR = target: T2, Human full-length GR (Homo sapiens, UniProt P04150); experiment: GR cell-based luciferase reporter assay, agonist and antagonist mode, stable U2OS reporter cells; settings: agonist mode and antagonist mode (10 nM dexamethasone), 100 μM to 100 pM, 24 hours
T2 sequence (P04150 1-777): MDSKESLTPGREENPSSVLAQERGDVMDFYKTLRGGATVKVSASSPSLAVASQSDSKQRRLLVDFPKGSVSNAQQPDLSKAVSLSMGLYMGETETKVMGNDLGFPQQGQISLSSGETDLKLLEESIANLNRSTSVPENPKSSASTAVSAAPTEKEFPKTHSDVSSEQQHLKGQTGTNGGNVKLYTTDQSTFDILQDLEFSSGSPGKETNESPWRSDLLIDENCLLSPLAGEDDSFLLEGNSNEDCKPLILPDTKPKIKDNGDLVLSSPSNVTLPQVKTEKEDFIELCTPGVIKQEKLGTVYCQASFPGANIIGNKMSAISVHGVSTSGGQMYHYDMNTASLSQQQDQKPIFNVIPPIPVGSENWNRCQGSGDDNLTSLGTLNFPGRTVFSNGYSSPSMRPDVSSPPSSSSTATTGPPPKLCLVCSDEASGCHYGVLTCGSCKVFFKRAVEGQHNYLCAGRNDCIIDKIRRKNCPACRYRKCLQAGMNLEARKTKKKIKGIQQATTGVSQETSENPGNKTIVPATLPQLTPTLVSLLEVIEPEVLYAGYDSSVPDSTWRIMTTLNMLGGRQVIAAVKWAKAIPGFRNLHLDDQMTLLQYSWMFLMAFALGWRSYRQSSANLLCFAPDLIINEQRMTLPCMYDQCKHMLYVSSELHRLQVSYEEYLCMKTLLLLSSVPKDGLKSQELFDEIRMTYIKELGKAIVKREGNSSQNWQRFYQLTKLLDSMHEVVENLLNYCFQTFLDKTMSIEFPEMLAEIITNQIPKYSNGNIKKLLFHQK

Human full-length AR = target: T3, Human full-length AR (Homo sapiens, UniProt P10275); experiment: AR cell-based luciferase reporter assay, agonist and antagonist mode, stable U2OS reporter cells; settings: agonist mode and antagonist mode (2 nM dihydrotestosterone), 100 μM to 100 pM, 24 hours
T3 sequence (P10275 1-920): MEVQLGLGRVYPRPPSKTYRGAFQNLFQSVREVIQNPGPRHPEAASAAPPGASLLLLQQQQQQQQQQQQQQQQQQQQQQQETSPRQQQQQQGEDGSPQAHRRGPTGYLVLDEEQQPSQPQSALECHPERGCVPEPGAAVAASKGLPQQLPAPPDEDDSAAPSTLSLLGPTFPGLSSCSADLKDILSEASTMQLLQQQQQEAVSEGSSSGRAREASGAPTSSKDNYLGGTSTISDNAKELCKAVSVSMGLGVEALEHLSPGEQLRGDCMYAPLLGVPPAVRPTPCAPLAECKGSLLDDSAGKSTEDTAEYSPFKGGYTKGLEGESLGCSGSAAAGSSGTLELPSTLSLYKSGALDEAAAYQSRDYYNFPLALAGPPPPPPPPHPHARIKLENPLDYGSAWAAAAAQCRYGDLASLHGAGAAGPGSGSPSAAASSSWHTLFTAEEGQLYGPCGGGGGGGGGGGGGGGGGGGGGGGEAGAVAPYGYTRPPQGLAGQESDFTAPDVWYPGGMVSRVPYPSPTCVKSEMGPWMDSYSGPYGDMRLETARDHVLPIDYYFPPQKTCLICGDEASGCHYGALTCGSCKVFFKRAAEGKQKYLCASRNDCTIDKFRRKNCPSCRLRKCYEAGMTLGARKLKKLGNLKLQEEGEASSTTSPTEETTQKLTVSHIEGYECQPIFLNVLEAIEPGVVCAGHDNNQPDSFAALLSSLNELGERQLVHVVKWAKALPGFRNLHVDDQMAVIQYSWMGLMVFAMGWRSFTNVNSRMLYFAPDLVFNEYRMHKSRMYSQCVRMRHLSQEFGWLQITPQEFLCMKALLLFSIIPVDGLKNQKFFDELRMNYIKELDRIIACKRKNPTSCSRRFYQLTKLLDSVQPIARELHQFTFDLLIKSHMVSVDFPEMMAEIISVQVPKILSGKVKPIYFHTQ

Human full-length ERα = target: T4, Human full-length ERα (Homo sapiens, UniProt P03372); experiment: ERα cell-based luciferase reporter assay, agonist mode, transiently transfected HEK293 cells; settings: 24 h; for EC50: low = activity detected but too low for exact value
T4 construct: expression vector encoding human full-length ERα or ERβ; expressed in transfected cells; host or cells: HEK293, transiently transfected
T4 sequence (P03372 1-595): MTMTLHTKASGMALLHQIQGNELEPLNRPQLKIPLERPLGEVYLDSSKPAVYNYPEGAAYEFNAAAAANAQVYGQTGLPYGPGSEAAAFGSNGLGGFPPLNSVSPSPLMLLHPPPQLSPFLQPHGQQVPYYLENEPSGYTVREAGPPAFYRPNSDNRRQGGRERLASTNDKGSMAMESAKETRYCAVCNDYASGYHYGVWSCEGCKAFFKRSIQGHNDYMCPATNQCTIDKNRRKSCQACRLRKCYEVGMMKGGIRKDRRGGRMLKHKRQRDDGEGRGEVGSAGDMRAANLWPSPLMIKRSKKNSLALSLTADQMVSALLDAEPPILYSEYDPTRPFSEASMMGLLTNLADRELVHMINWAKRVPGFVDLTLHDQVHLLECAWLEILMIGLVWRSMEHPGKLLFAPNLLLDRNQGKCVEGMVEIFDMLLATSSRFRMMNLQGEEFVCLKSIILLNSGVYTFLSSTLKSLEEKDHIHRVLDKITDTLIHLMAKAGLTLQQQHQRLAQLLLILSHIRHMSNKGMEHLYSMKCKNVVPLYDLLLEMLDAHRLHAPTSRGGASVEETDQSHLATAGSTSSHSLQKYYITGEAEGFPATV
Experimental: as §1, §2

[1] = Trial 2 (believed more reliable)

T1 sequence (Q92731 whole entry): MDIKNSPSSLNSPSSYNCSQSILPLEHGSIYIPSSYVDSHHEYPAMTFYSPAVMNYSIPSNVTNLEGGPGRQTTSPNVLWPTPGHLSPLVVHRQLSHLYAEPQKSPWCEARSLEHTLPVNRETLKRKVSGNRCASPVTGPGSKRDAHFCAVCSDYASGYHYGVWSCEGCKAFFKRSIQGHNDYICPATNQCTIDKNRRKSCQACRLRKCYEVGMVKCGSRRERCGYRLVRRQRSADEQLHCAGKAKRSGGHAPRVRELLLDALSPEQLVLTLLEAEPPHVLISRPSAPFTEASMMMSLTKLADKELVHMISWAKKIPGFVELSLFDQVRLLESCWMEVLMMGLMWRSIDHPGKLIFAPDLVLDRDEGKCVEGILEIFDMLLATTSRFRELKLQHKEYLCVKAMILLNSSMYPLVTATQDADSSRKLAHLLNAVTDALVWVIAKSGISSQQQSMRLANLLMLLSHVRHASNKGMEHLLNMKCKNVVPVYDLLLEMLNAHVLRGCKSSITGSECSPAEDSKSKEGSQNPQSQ

Compound: 1-(4-hydoxyphenyl)-12-(1-hydroxyheptyl)-1,12-dicarba-closo-dodecaborane [Compound 06]
- ERβ Efficacy (%) (Human full-length ERβ; Trial 1): 100%
- ERβ Log(EC50) (M) (Human full-length ERβ; Trial 1, log10 of EC50): −7.71 M
- EC50 (Human full-length ERβ; Trial 1, read-out: ERβ EC50): 0.019 µM
- ERβ Efficacy (%) (Human full-length ERβ; [1]): 103%
- ERβ Log(EC50) (M) (Human full-length ERβ; Trial 2 (believed more reliable), log10 of EC50): −7.76 M
- EC50 (Human full-length ERβ; Trial 2 (believed more reliable), read-out: ERβ EC50): 0.017 µM
- EC50 (Human full-length ERβ; differs from Table 5, luciferase reporter assay in HEK cells, read-out: EC50 at ERβ): 0.005 µM
- IC50 (HEK293 cells; Trial 1): 18 µM
- IC50 (HEK293 cells; [1]): 17 µM
- agonistic or antagonistic activities on GR (Human full-length GR): no agonistic or antagonistic activities

Compound: C[C@]12CC[C@@H]3c4ccc(O)cc4CC[C@H]3[C@@H]1CC[C@@H]2O [Compound E2, Estradiol]
- HEK293 viability IC50 (μM) (HEK293 cells): Low
- agonistic or antagonistic activities on GR (Human full-length GR): no agonistic or antagonistic activities

Compound: N#CC(Cc1ccc(O)cc1)c1ccc(O)cc1 (centres unmarked) [DPN, Diarylpropionitrile]
- HEK293 viability IC50 (μM) (HEK293 cells): Low
- agonistic or antagonistic activities on AR (Human full-length AR): no agonistic or antagonistic activities
- agonistic or antagonistic activities on GR (Human full-length GR): no agonistic or antagonistic activities

Compound: CCCc1c(-c2ccc(O)cc2)nn(-c2ccc(O)cc2)c1-c1ccc(O)cc1 [PPT, Propyl pyrazole triol]
- ERα Efficacy (%) (Human full-length ERα): 101%
- EC50 (Human full-length ERα; read-out: ERα EC50): 0.0033 µM
- EC50 (Human full-length ERα; log10 of EC50, negative values, read-out: ERα Log(EC50) (converted)): 0.00331 µM
- ERβ EC50 (nM) (Human full-length ERβ; 24 h, low = activity detected but too low for exact value): low
- ERβ Log(EC50) (M) (Human full-length ERβ; log10 of EC50, negative values, 24 h, low = activity detected but too low for exact value): low
